Reference: paper PMC5985520 (Molecular bioSystems, 2009)
Like-named read-outs stand apart in the source and are kept apart here.

Biological target: C2 domain of PKCα (Homo sapiens, UniProt P17252)
Experiment: SPR equilibrium binding of PKCα-C2 to lipid vesicles containing PA derivatives

`CCCCCCCC/C=C\CCCCCCCC(=O)O[C@H](COC(=O)CCCCCCCCCCCCCCC)COP(=O)(O)O` [POPA, 1-palmitoyl-2-oleoyl-sn-glycero-3-phosphatidic acid] was tested, and the Kd (read-out: Kd (dissociation constant for binding of PKCα-C2 to vesicles containing PA derivative), POPC:POPE:PA (40:40:20) vesicles, 20 mol% PA, L1 chip, 25°C, 25 mM Tris HCl pH 7.4, 150 mM NaCl, 1 mM CaCl2, 1 mM DTT) was 440 ± 50 nM and the Kd (read-out: Kd (dissociation constant for binding of PKCα-C2 to vesicles containing PA derivative), POPC:POPE:PA (55:40:5) vesicles, 5 mol% PA, L1 chip, 25°C, 25 mM Tris HCl pH 7.4, 150 mM NaCl, 1 mM CaCl2, 1 mM DTT) was 490 ± 90 nM.
